Assay results published in patent US10702486B2, “Treatment of CNS disorders with trans 4-(3,4-dichlorophenyl)-1,2,3,4-tetrahydro-1-naphthalenamine” (SUNOVION PHARMACEUTICALS INC., priority 2002, dated 2020).
“And” between values parts separate entries of the source, which are not always exact repeats. Equal entries are not always repeated. Where two headings read alike, the source gives them in different places. One block for each molecule: values may come before it.

Columns and labels:
[1] = target: functional uptake of norepinephrine (NE) (Rattus norvegicus, UniProt Q9WTR4); experiment: Norepinephrine functional uptake assay in rat hypothalamus synaptosomes; assay type: biochemical; conditions: [3H]-norepinephrine, 20 minutes at 37° C.
[2] = target: T1, functional uptake of dopamine (DA) (Rattus norvegicus, UniProt P23977); experiment: Dopamine functional uptake assay in rat striatum synaptosomes; assay type: biochemical; conditions: for IC50: rat striatum synaptosomes, [3H]-dopamine, 15 minutes at 37° C.; for inhibition at 10 µM: tested initially at 10 μM in duplicate, read-out: inhibition of DA uptake (no IC50), Table 1
T1 construct: synaptosomes isolated at Cerep in a 0.32 M sucrose buffer from a male Wistar rat striatum; tissue Cerep; host or cells: male Wistar rat striatum synaptosomes

[3] = target: T2, functional uptake of serotonin (5-HT) (Rattus norvegicus, UniProt P31652); experiment: Serotonin functional uptake assay in rat synaptosomes; assay type: biochemical; conditions: for inhibition at 10 µM: tested initially at 10 μM in duplicate
T2 construct: synaptosomes isolated in a 0.32M sucrose buffer from a male Wistar rat cortex; from tissue

[4] = Hamelin et al. 1996; Serebruany et al. 2001; cited from earlier work
[5] = Behavioral Despair Test in Mice; assay type: in vivo; set-up: key to Dunnett, significance vs vehicle: * indicates a significant difference vs vehicle for P < 0.05 (Dunnett test)
[6] = 10 mg/kg, N = 10, E intraperitoneal
[7] = 50 mg/kg intraperitoneal, N = 10

T1 sequence (P23977 whole entry): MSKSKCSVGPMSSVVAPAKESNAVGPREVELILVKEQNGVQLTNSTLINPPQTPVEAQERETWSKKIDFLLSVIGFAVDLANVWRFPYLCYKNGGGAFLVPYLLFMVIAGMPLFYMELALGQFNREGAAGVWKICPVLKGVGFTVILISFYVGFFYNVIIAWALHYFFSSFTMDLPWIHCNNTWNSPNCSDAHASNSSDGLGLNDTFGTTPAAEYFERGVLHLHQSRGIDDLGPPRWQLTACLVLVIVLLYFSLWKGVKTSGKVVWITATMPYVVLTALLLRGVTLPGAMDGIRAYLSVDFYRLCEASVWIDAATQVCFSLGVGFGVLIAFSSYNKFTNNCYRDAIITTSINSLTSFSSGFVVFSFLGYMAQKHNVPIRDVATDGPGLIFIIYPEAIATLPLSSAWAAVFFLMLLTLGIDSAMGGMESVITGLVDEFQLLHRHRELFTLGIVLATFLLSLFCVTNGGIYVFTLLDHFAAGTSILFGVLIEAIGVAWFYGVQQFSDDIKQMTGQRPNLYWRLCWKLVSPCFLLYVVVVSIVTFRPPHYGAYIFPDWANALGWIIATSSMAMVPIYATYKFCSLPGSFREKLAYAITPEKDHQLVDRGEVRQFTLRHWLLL
T2 sequence (P31652 whole entry): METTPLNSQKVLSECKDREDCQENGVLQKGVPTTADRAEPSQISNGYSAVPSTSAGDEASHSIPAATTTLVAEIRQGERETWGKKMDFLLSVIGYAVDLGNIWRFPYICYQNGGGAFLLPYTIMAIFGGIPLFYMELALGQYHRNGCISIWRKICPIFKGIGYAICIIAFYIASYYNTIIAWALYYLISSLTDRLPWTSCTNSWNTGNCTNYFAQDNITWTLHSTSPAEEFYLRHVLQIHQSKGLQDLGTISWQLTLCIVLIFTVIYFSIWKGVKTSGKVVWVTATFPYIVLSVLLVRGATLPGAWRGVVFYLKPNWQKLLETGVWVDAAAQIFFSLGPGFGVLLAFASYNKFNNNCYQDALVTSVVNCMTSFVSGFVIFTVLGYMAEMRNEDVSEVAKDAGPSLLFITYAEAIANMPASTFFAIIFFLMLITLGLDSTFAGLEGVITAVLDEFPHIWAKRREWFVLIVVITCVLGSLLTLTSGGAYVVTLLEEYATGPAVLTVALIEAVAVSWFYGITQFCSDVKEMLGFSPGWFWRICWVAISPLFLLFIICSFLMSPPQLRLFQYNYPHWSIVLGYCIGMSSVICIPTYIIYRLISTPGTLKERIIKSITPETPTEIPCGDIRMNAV

IC50 [1]: 611 nM
Compound: CC(NC(C)(C)C)C(=O)c1cccc(Cl)c1 (stereo not drawn) [bupropion, reference compound]

IC50 [1]: 9.6 nM
Compound: N[C@@H]1CC[C@@H](c2ccc(Cl)c(Cl)c2)c2ccccc21 [P, (1R,4S)-trans 4-(3,4-dichlorophenyl)-1,2,3,4-tetrahydro-1-naphthalenamine]

IC50 [2]: 530 nM
inhibition at 10 µM ([3]; read-out: inhibition of 5-HT uptake (no IC50), Table 3): < 50%
IC50 [1]: 3900 nM
Compound: O=CN[C@@H]1CC[C@@H](c2ccc(Cl)c(Cl)c2)c2ccccc21 (racemic) [F, N-[4-(3,4-dichlorophenyl)-1,2,3,4-tetrahydronaphthalen-1-yl]formamide]

inhibition at 10 µM ([3]; read-out: inhibition of 5-HT uptake (no IC50), Table 1): < 50%
Compound: Fc1ccc(C(OCCN2CCN(CCCc3ccccc3)CC2)c2ccc(F)cc2)cc1 [GBR 12909, reference compound]

Compound: N[C@H]1CC[C@@H](c2ccc(Cl)c(Cl)c2)c2ccccc21 [norsertraline, (1S,4S)-cis 4-(3,4-dichlorophenyl)-1,2,3,4-tetrahydro-1-naphthalenamine]
neurological activity as stated in literature reports [4]: neurologically inactive

IC50 [2]: 510 nM
IC50 ([3]; rat synaptosomes, [3H]5-hydroxytryptamine, 15 min at 37° C.): 7500 nM
IC50 [1]: 400 nM
Compound: O=CN[C@@H]1CC[C@@H](c2ccc(Cl)c(Cl)c2)c2ccccc21 [E, (R,S/S,R) N-[4-(3,4-dichlorophenyl)-1,2,3,4-tetrahydronaphthalen-1-yl]formamide]
Dunnett, significance vs vehicle ([5]; 10 mg/kg, N = 10): *
Immobility Duration (sec.), individual mice [5, 6]: 59 s and 162 s and 131 s and 22 s and 167 s and 58 s and 135 s and 122 s and 164 s and 50 s
Immobility Duration, Mean ± sem [5, 6]: 107 s
Immobility Duration (sec.), individual mice [5, 7]: 15 sec. (2×) and 0 sec. (3×) and 98 sec. and 34 sec. and 59 sec. and 25 sec. and 63 sec.
Immobility Duration, Mean ± sem [5, 7]: 31 s
Dunnett, significance vs vehicle ([5]; 50 mg/kg, N = 10): *

IC50 [1]: 35 nM
Compound: N[C@H]1CC[C@H](c2ccc(Cl)c(Cl)c2)c2ccccc21 [Q, (1S,4R)-trans 4-(3,4-dichlorophenyl)-1,2,3,4-tetrahydro-1-naphthalenamine]

Compound: CN(C)CCCN1c2ccccc2CCc2ccccc21 [imipramine, reference compound]
inhibition at 10 µM [2]: < 50%
Dunnett, significance vs vehicle ([5]; 10 mg/kg, N = 10): *
Immobility Duration (sec.), individual mice [5, 6]: 28 sec. and 156 sec. and 98 sec. and 0 sec. (2×) and 63 sec. and 30 sec. and 56 sec. and 116 sec. and 64 sec.
Immobility Duration, Mean ± sem [5, 6]: 61 s

Compound: CNCCCC1c2ccccc2C=Cc2ccccc21 [protriptyline, reference compound]
inhibition at 10 µM [2]: < 50%

IC50 [2]: 7.1 nM
IC50 [1]: 8.8 nM
Compound: N[C@@H]1CC[C@@H](c2ccc(Cl)c(Cl)c2)c2ccccc21 (racemic) [P + Q, trans-4-(3,4-dichlorophenyl)-1,2,3,4-tetrahydro-1-naphthalenamine]
